Measurements as given in patent US6541463B1, “Inhibitors of type 5 and type 3 17β-hydroxysteroid dehydrogenase and methods for their use” (Endorecherche, Inc., priority 1998, dated 2003).
Like-named read-outs stand apart in the source and are kept apart here.

How the values were obtained:
[1] = target: T1, human type 3 3α-hydroxysteroid dehydrogenase (Homo sapiens, UniProt P52895); test: Enzymatic assay for type 3 3α-HSD; format: biochemical; details: Table 4′; read-out: Inhibition Type 3 3α-HSD Activity IC50
T1 construct: expressed in transfected cells; host or cells: 293 cells, transient transfection
T1 sequence (P52895 1-323): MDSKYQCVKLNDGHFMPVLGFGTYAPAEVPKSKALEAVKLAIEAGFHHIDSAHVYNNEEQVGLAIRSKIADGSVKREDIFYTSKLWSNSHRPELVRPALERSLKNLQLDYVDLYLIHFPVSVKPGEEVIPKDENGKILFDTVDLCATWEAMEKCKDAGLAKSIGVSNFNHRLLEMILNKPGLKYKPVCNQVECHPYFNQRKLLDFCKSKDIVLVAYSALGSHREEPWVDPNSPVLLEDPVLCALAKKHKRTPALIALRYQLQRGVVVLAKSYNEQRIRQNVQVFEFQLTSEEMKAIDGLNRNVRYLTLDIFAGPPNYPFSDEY
Protocol: (§1) The manner in which IC50 was determined is described in “Efficacy of Preferred Inhibitors: VI. Enzymatic assay for types 1, 2, and 3 17β-HSD and types 1 and 3 3α-HSD”. […] numbers of IC50 are desirable. Blank means that a determination was not done. The % of inhibition at the concentration of 3.10^−6M determined in preliminary screening test is reported in square braquets.
(§2) Enzyme sources. 293 cells transiently transfected with expression vectors encoding types 1, 2 and 3 17β-HSD (Luu-The et al., J. Steroid Biochem. Molec. Biol., 55: 581-587, 1995), types 1 and 2 5α-reductase (Luu-The et al., J. Invest. Dermatol., 102: 221-226, 1994) and types 1 and 3 3α-HSD (Dufort et al. Biochem. Biophys. Res. Commun. 228: 474-479, 1996), using the calcium phosphate procedure (Kingston et al., In: Current Protocols in Molecular Biology. Edited by E. M. Ausbel, R. Brent, R. E. Kingston, D. D. Moore, J. G. Seidman, J. A. Smith, K. Struhl. John Wiley & Sons, New York, pp. 9.1.1-9.1.9, 1991; Luu-The et al., J. Invest. Dermatol., 102: 221-226, 1994). For assays using cell subfractions, cells were sonicated in 50 mM sodium phosphate buffer (pH 7.4), containing 20% glycerol and 1 mM EDTA and centrifuged at 10 000×g for 30 min before centrifugation for 100 000×g for 1 h to separate the mitochondrial and microsomal fractions, respectively. The cytosol fractions (100 000×g supernatant) was used to determine type 1 activity while the microsomal fraction (pellet at 100 000×g) was used for measurement of types 2 and 3 17β-HSD activities.
(§3) Incubation. The enzymatic reaction was carried out at 37° C. in 1 ml of 50 mM sodium phosphate buffer, pH 7.4, containing 20% glycerol, 1 mM EDTA, and 2 mM cofactors (NADPH or AND^+) for 1 h in the presence of 0.1 μM ^14C-labeled substrate: estrone and 4-dione for types 1 and […] 17β-HSD, respectively, testosterone for type 2 17β-HSD as well as types 1 and 2 5α-reductases, DHT for types 1 and 3 3α-HSD activities, and the indicated concentration of inhibitor.
(§4) Extraction of metabolites, migration on TLC and quantification were as described above for the assay of type 5 17β-HSD.

[2] = target: T2, human type 1 17β-hydroxysteroid dehydrogenase (Homo sapiens, UniProt P14061); test: Enzymatic assay for type 1 17β-HSD; format: biochemical; details: for IC50: Table 4′, read-out: Inhibition Type 1 17β-HSD Activity IC50; for Inhibition Type 1 17B-HSD Activity [% Inh. at 3 · 10^−6 M] / inhibition at 3 µM: value in square brackets, 3 · 10^−6 M; for inhibition at 3 µM: read-out: Inhibition Type 1 17B-HSD Activity [% Inh. at 3 · 10^−6 M]
T2 construct: expressed in transfected cells; host or cells: 293 cells, transient transfection; 100 000×g supernatant (cytosol)
T2 sequence (P14061 1-328): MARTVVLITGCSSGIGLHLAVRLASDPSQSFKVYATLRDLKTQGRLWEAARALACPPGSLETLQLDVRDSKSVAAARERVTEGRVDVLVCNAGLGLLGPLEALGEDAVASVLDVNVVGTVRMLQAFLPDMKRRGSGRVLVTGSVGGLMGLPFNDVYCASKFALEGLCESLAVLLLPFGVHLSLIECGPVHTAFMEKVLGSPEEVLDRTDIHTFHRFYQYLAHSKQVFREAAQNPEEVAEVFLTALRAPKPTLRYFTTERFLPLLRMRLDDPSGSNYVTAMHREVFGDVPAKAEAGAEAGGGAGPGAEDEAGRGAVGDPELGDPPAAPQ
Protocol: as §1, §2, §3, §4

[3] = target: T3, human type 5 17β-hydroxysteroid dehydrogenase (Homo sapiens, UniProt P42330); test: Reversibility of human type 5 17β-HSD inhibitory activity (preincubation, wash); format: cell-based
T3 construct: screen again a human placental λgt11 cDNA to get the full length cDNA clone; expressed in transfected cells; host or cells: human embryonal kidney 293 cells (pCMV / pCMV-neo vector)
T3 sequence (P42330 1-323): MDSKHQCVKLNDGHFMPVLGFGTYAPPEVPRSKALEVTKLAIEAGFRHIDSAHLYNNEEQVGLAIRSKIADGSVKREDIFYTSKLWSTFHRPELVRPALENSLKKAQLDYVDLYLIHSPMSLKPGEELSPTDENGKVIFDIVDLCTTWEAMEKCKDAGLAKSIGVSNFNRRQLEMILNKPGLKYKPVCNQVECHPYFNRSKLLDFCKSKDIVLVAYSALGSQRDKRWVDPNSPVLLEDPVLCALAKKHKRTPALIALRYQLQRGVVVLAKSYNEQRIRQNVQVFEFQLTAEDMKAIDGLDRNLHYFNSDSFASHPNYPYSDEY
Protocol: In column 3, the reversibility of the inhibition of type 5 17β-hydroxysteroid dehydrogenase activity expressed in percentage of control is reported. The manner in which the reversibility is determined is described in “Efficacy of Preferred Inhibitors: V. Reversibility of Human Type 5 17β-HSD Inhibitory Activity”. Lower number is desirable. Blank means that a determination was not done.
Determination of activity was performed as described (Luu-The et al., Mol. Endocrionol. 4: 268-275, 1990, Lachance et al., J. Biol. Chem. 265: 20469-20475, 1990; Luu-The et al., DNA & Cell Biol. 14: 511-518, 1995). Briefly, 0.1 μM of the indicated ^14C-labeled substrate (Dupont Inc. (Canada), namely, DHEA, 4-androstene-3,17-dione (Δ4), in absence or presence of increasing concentration of preferred inhibitor of the invention, was added to freshly changed culture medium in a 6-well culture plate. After incubation for 1 h, the steroids were extracted twice with 2 ml of ether. The organic phase were pooled and evaporated to dryness. The steroids were solubilized in 50 μl of dichloromethane, applied to Silica gel 60 thin layer chromatography (TLC) plate (Merck, Darmstad, Germany) then separated by migration in the toluene-acetone (4:1) solvent system. […] Transfection could be also performed with HeLa, SW-13, 293, COS-1 cells, the preferred cell line is 293 cells.
The reversibility assay was performed as described above for the standard type 5 17β-HSD enzymatic assay, except that before adding the ^14C-labeled substrate, the cells were preincubated with 0.3 μM of the indicated inhibitor for 1 h, (or the indicated time interval), followed by two washes with phosphate saline buffer (PBS).

## CC1(C)CCC2(CCC3C4CCc5cc(OS(C)(=O)=O)ccc5C4CCC32C)OC1=O (centres unmarked) [EM-1365-CS]
[1]
  IC50: > 10 µM
[2]
  IC50: > 10 µM
[3]; Table 4′
  Reversibility ((%) of control): 49 % of control

## CC1=C[C@@H]2[C@H](CC[C@]3(C)C(=O)C4(CCCCC4)C[C@@H]23)[C@@]2(C)CCC(=O)C=C12 [EM-925]
[2]
  Inhibition Type 1 17B-HSD Activity [% Inh. at 3 · 10^−6 M]: [13] %

## CC1(C)CC[C@@]2(CCC3C4CCc5cc(F)ccc5C4CC[C@@]32C)OC1=O (some centres unmarked) [EM-1157-CS]
[1]
  IC50: > 10 µM
[2]
  IC50: > 10 µM
[3]; Table 4′
  Reversibility ((%) of control): 28 % of control

## CC1(C)CC[C@@]2(CCC3C4CCc5cc(C(=O)O)ccc5C4CC[C@@]32C)OC1=O (stereo partly drawn) [EM-1401, 3-Carboxy-1,3,5(10)-estratrien-17(R)-spiro-2′-(5′,5′-dimethyl-6′-oxo)tetrahydropyran]
[1]
  IC50: > 10 µM
[2]
  IC50: > 10 µM
[3]; Table 4′
  Reversibility ((%) of control): 31 % of control

## CCC[C@]1(F)CC2C3C=CC4=CC(=O)CC[C@]4(C)C3CC[C@]2(C)C1=O (some centres unmarked) [EM-1183]
[2]
  inhibition at 3 µM: 34%

## COc1ccc(CC(=O)O[C@]2(C(C)=O)CCC3C4C=C(C)C5=CC(=O)C=C[C@]5(C)C4CC[C@@]32C)cc1 (some centres unmarked) [EM-1291]
[3]
  Reversibility ((%) of control): 27%

## CC1(C)CCC2(CCC3C4CCc5c(cc(Cl)c(OS(C)(=O)=O)c5Cl)C4CCC32C)OC1=O (centres unmarked) [EM-1392-CS]
[3]; Table 4′
  Reversibility ((%) of control): 38 % of control

## CC1(C)CCC2(CCC3C4CCc5cc(OCCN6CCCCC6)ccc5C4CCC32C)OC1=O [EM-1390-CS, 3-(N-piperidyl-ethyl)-1,3,5(10)-estratrien-17(R)-spiro-2′-(5′,5′-dimethyl-6′-oxo)-tetrahydropyran]
[3]; Table 4′
  Reversibility ((%) of control): 50 % of control

## COCCOc1cc2c(cc1C(=O)N(C)C)C1CCC3(C)C(CCC34CCC(C)(C)C(=O)O4)C1CC2 (centres unmarked) [EM-1413-CS]
[3]; Table 4′
  Reversibility ((%) of control): 37 % of control

## COCCOc1cc2c(cc1C#N)C1CC[C@@]3(C)C(CC[C@@]34CCC(C)(C)C(=O)O4)C1CC2 (some centres unmarked) [EM-1396]
[1]
  IC50: > 10 µM
[2]
  IC50: > 10 µM
[3]; Table 4′
  Reversibility ((%) of control): 28 % of control

## COCCOc1cc2c(cc1C(=O)OC)C1CC[C@@]3(C)C(CC[C@@]34CCC(C)(C)C(=O)O4)C1CC2 (stereo partly drawn) [EM-1402-CS, 2-Carbomethoxy-3-(2″-methoxyethyloxy)-1,3,5(10)-estratrien 17(R)-spiro-2′-(5′,5′-dimethyl-6′-oxo)tetrahydropyran]
[1]
  IC50: > 10 µM
[2]
  IC50: > 10 µM
[3]; Table 4′
  Reversibility ((%) of control): 25 % of control

## CCCC(=O)O[C@]1(C)C(=O)CCC2C3C=C(C)C4=CC(=O)CC[C@]4(C)C3CC[C@@]21C (some centres unmarked) [EM-1078]
[2]
  inhibition at 3 µM: 15%

## C[C@]12CCC(=O)C=C1C=C[C@@H]1[C@@H]2CC[C@]2(C)C(=O)C3(CC4CC4C3)C[C@@H]12 (some centres unmarked) [EM-1299, 4,6-Androstadien-3,17-dione-16-spirobicyclo[3′.1′.0′]-hexane]
[2]
  Inhibition Type 1 17B-HSD Activity [% Inh. at 3 · 10^−6 M]: [49] %

## COc1ccc2c(c1)C(=O)CC1C2CC[C@@]2(C)C1CC[C@@]21CCC(C)(C)C(=O)O1 (some centres unmarked) [EM-1394]
[1]
  IC50: > 10 µM
[2]
  IC50: > 10 µM
[3]; Table 4′
  Reversibility ((%) of control): 23 % of control

## CN(C)CCOc1ccc2c(c1)CCC1C2CCC2(C)C1CCC21CCC(C)(C)C(=O)O1 (centres unmarked) [EM-1389-CS]
[3]; Table 4′
  Reversibility ((%) of control): 40 % of control

## COc1c(Br)cc2c(c1Br)CCC1C2CCC2(C)C1CCC21CCC(C)(C)C(=O)O1 (centres unmarked) [EM-1385-CS]
[3]; Table 4′
  Reversibility ((%) of control): 60 % of control

## COCCOc1cc2c(cc1Cl)C1CCC3(C)C(CCC34CCC(C)(C)C(=O)O4)C1CC2 (centres unmarked) [EM-1371-CS]
[3]; Table 4′
  Reversibility ((%) of control): 40 % of control

## CC(C)C[C@@H]1CC2C3C=CC4=CC(=O)CC[C@]4(C)C3CC[C@]2(C)C1=O (some centres unmarked) [EM-1273-CS]
[2]
  inhibition at 3 µM: 31%
[3]
  Reversibility ((%) of control): 40%

## CC1(C)CC[C@@]2(CCC3C4CCc5cc(C(N)=O)ccc5C4CCC32C)OC1=O (some centres unmarked) [EM-1404]
[1]
  IC50: > 10 µM
[2]
  IC50: > 10 µM

## CC12C=CC(=O)C=C1C=CC1C2CCC2(C)C(=O)C3(CCCCC3)CC12 (centres unmarked) [CS-204]
[2]
  inhibition at 3 µM: 23%

## COc1ccc2c(c1)C(=O)CC1C3CCC4(CCC(C)(C)C(=O)O4)C3(C)CCC21O (centres unmarked) [EM-1386]
[3]; Table 4′
  Reversibility ((%) of control): 54 % of control

## COCCOc1cc2c(cc1C(=O)O)C1CCC3(C)C(CCC34CCC(C)(C)C(=O)O4)C1CC2 [EM-1405, 2-Carboxy-3-(2″-methoxyethyloxy)-1,3,5(10)-estratrien-17(R)-spiro-2′-(5′,5′-dimethyl-6′-oxo)tetrahydropyran]
[3]; Table 4′
  Reversibility ((%) of control): 53 % of control

## CC1(C)CCC2(CCC3C4CCc5c(cc(Cl)c(O)c5Cl)C4CCC32C)OC1=O (centres unmarked) [EM-1391-CS]
[3]; Table 4′
  Reversibility ((%) of control): 49 % of control

## COc1cc2c(cc1C)C1CCC3(C)C(CCC34CCC(C)(C)C(=O)O4)C1CC2 (centres unmarked) [EM-1412-CS]
[3]; Table 4′
  Reversibility ((%) of control): 71 % of control

## COCCOc1cc2c(cc1F)C1CCC3(C)C(CCC34CCC(C)(C)C(=O)O4)C1CC2 (centres unmarked) [EM-1393-CS]
[3]; Table 4′
  Reversibility ((%) of control): 38 % of control

## CCC[C@@H]1CC2C3C=CC4=CC(=O)CC[C@]4(C)C3CC[C@]2(C)C1=O (some centres unmarked) [EM-1097]
[2]
  inhibition at 3 µM: 64%
[3]
  Reversibility ((%) of control): 45%
